Laboratory results published in patent publication US10945971B2, “Sphingosine kinase type 1 inhibitors and uses thereof” (Enzo Therapeutics, Inc., priority 2008, dated 2021).

System: U373 cells
Assay: Cell proliferation (WST-1), U373 cells
Type: cell-based, human
Experimental: U373-MG and LN229 human glioblastoma cells (ATTC, Manassas, Va.) were cultured in DMEM supplemented with 5% FCS. Primary human non-established glioblastoma GBM6 cells were kindly provided by Dr. C. David James and were passaged as tumors in nude mice and subcultured for 1 week following isolation from tumors in media containing 2% FCS to prevent growth of contaminating rodent fibroblasts and then cultured in 5% FCS as described (Yacoub et al., Mol Cancer Ther 7:314-329, 2008). LN229 cells were transfected with H2B-EGFP plasmid and stable colonies were isolated following selection with 1 mg/ml of G418. LN229-H2B-EGFP cells were passaged as tumors as described above.
Cells were plated at 10,000 cells/well in 48-well plates and allowed to attach for 24 h. Cell proliferation was measured at the indicated times with WST-1 and absorbance was measured in a plate reader at 450 nm with background subtraction at 630 nm. Cell death was detected by trypan blue exclusion assays in which the percent of blue dye incorporating cells were determined using a light microscope and a hemacytometer as described (Yacoub et al. Mol Cancer Ther 7:314-329, 2008). Apoptotic cell death was measured by staining cell nuclei with the Hoechst dye bisbenzimide and apoptotic cells were identified by condensed, fragmented nuclear regions as described previously (Sankala et al. Cancer Res 67:10466-10474, 2007). A minimum of 300 cells was scored.

CCCCCc1ccc(/C=C/[C@H](O)[C@@H](CO)NC)cc1 [SK1-I, (2R,3S,4E)-N-methyl-5-(4′-pentylphenyl)-2-aminopent-4-ene-1,3-diol] was tested, and the cell growth (U373, 10 μM, absence of serum) was “strongly inhibited growth”, the cell numbers (U373, 10 μM, presence of serum, within 2-4 days) was “severe reductions in cell numbers” and the “concentration at which a significant growth inhibitory effect was observed” value (U373 cells) was 3 µM.
